Measurements from patent US6087358A (priority 1997, dated 2000).
≈ marks a conversion by molar mass, not a printed value. Like-named read-outs stand apart in the source and are kept apart here.

Experiments:
[1] = system: Clostridium difficile ATCC 17857; assay: In vitro inhibition of Clostridium difficile (Oxyrase broth microdilution MIC); type: cell-based; conditions: Clostridioides difficile, ATCC17857; Clostridium difficile ATCC 17857, Oxyrase broth; read-out: MIC, column D, 3(S) compounds
[2] = system: Mycobacterium bovis BCG (recombinant strain); assay: microbe, parasite or virus in culture; type: cell-based; conditions: 6 days 37° C.; for MIC: Mycobacterium tuberculosis variant bovis BCG, BCG, 144 h, read-out: MIC, column A, 3(S) compounds
Cryptosporidium parvum = assay: Inhibition of Cryptosporidium parvum (ELISA, infected HCT-8 monolayers); type: cell-based; conditions: for inhibition at 25 µg/mL / inhibition at 50 µg/mL / inhibition at 100 µg/mL / inhibition at 200 µg/mL: Cryptosporidium parvum, HCT-8, read-out: Percent Inhibition of C. parvum; for inhibition at 25 µg/mL / inhibition at 50 µg/mL / inhibition at 100 µg/mL / inhibition at 200 µg/mL / Percent Inhibition of C. parvum: 48 h
Description: Susceptibility testing against Cryptosporidium was performed according to published procedures (K. Woods, M. Nesterenko, S. Upton, "Development of a microtiter ELISA to quantify development of Cryptosporidium parvum in vitro," FEMS Microbiology Letters, 128:89-94 (1995).
Compounds were solubilized to a concentration of 100 mg/mL in 100% DMSO. DMSO solutions of test compounds were added to the test wells of a microplate at a volume that produced a final concentration of DMSO of 0.2%. Monolayers of human ileocecal adenocarcinoma cells (HCT-8) were prepared by growth in RPMI 1640 medium in 96-Well tissue culture trays for 24 h. Oocysts of C. parvum were allowed to excyst in 10% bleach for 10 min prior to use. Monolayers were then infected with 2-3×10^4 oocysts/well and incubated in the presence or absence of compound for 48 h at 35° C. in 5% CO2 and 95% humidity. Background consisted of wells containing killed oocysts (freeze thaw cycle following 30 sec exposure to liquid nitrogen). Growth control wells were infected with 2-3×10^4 oocysts/well in the absence of test compounds. At the end of incubation, wells were washed and fixed by adding 100 uL of 4% formalin in phosphate buffered saline (pH 7.3) per well for 2 h. After blocking with 1% bovine serum albumin, and 0.002% Tween 20, 50 uL of rat anti-Cryptosporidium membrane protein antiserum was added. After 30 min, wells were washed in PBS and 50 uL of secondary antibody (goat anti-rat antibody conjugated with horseradish peroxidase) was added. After 20-30 min, wells were washed again in PBS and 50 uL of 3,3',5,5'-tetramethylbenzidine solution was added. Plates were allowed to develop for 10-15 min and the optical density was read at 630 nm. Percent inhibition was calculated by comparing the optical density of the drug treated group to that of the untreated control.

Helicobacter pylori = assay: In vitro inhibition of Helicobacter pylori (broth microdilution MIC); conditions: Helicobacter pylori
[3] = system: Mycobacterium bovis (rBCG-lux); assay: microbe, parasite or virus in culture; type: cell-based, Mycobacterium bovis bacille Calmette Guerin; conditions: Mycobacterium tuberculosis variant bovis, 72 h; read-out: % of control, measured in RLUs
[4] = 72 h, read-out: MIC against Helicobacter pylori, strain 17 (Table 5A)
[5] = 72 h, read-out: MIC against Helicobacter pylori, strain 19 (Table 5A)
[6] = 72 h, read-out: MIC against Helicobacter pylori, strain 20 (Table 5A)
[7] = 72 h, read-out: MIC against Helicobacter pylori, strain 40 (Table 5A)
[8] = 72 h, read-out: MIC against Helicobacter pylori, strain 43 (Table 5A)
[9] = 72 h, read-out: MIC against Helicobacter pylori, strain 76 (Table 5A)
[10] = ATCC43504, 72 h, read-out: MIC against Helicobacter pylori, strain ATCC 43504 (Table 5A)

For `O=[N+]([O-])c1cn2c(n1)OC[C@@H](OCc1ccc(F)cc1)C2` [PA-655], the MIC [1] was 6.25 µg/mL (≈ 21.3 µM) and the MIC [2] was over 5 µg/mL.
For `COc1ccc(CO[C@@H]2COc3nc([N+](=O)[O-])cn3C2)cc1` [PA-736], the inhibition at 25 µg/mL (Cryptosporidium parvum; 25 μg/mL) was -3.2%, the inhibition at 50 µg/mL (Cryptosporidium parvum; 50 μg/mL) was 3% and the inhibition at 100 µg/mL (Cryptosporidium parvum; 100 μg/mL) was 45%. For the same compound, the inhibition at 200 µg/mL (Cryptosporidium parvum; 200 μg/mL) was 97.7% and the MIC [2] was 8 µg/mL (≈ 26.2 µM).
With `O=[N+]([O-])c1cn2c(n1)OC[C@@H](OCc1cccc(OCc3ccccc3)c1)C2` [PA-820] the MIC [1] was 3.12 µg/mL (≈ 8.18 µM) and the MIC [2] was under 5 µg/mL.
`O=[N+]([O-])c1cn2c(n1)OC[C@@H](OCc1ccc(Oc3ccccc3)cc1)C2` [PA-1122] was tested, and the inhibition at 25 µg/mL (Cryptosporidium parvum; 25 μg/mL) was -1.8%, the inhibition at 50 µg/mL (Cryptosporidium parvum; 50 μg/mL) was 17.8% and the inhibition at 100 µg/mL (Cryptosporidium parvum; 100 μg/mL) was 61%. The inhibition at 200 µg/mL (Cryptosporidium parvum; 200 μg/mL) was 83.5% and the MIC [2] was 0.06 µg/mL (≈ 0.163 µM).
For `O=C(N[C@@H]1COc2nc([N+](=O)[O-])cn2C1)c1ccc(OCc2ccccc2)cc1` [PA-1125], the MIC (Helicobacter pylori; [4]) was over 25 µg/mL, the MIC (Helicobacter pylori; [5]) was 0.8 µg/mL (≈ 2.03 µM) and the MIC (Helicobacter pylori; [6]) was 0.8 µg/mL (≈ 2.03 µM). For the same compound, the MIC (Helicobacter pylori; [7]) was 1.5 µg/mL (≈ 3.8 µM), the MIC (Helicobacter pylori; [8]) was 1.5 µg/mL (≈ 3.8 µM) and the MIC (Helicobacter pylori; [9]) was over 25 µg/mL. It also gave an MIC (Helicobacter pylori; [10]) of over 25 µg/mL, an MIC [1] of 1.5 µg/mL (≈ 3.8 µM) and an MIC [2] of 0.06 µg/mL (≈ 0.152 µM).
`CCCCCCCCc1ccc(CO[C@@H]2COc3nc([N+](=O)[O-])cn3C2)cc1` [PA-1142] was tested, and the MIC (Helicobacter pylori; [4]) was over 25 µg/mL, the MIC (Helicobacter pylori; [5]) was 0.4 µg/mL (≈ 1.03 µM) and the MIC (Helicobacter pylori; [6]) was 0.8 µg/mL (≈ 2.06 µM). It also gave an MIC (Helicobacter pylori; [7]) of 1.5 µg/mL (≈ 3.87 µM), an MIC (Helicobacter pylori; [8]) of 0.4 µg/mL (≈ 1.03 µM) and an MIC (Helicobacter pylori; [9]) of 3.12 µg/mL (≈ 8.05 µM). The MIC (Helicobacter pylori; [10]) was over 25 µg/mL, the MIC [1] was 1.5 µg/mL (≈ 3.87 µM) and the MIC [2] was 0.06 µg/mL (≈ 0.155 µM).
With `O=C(N[C@@H]1COc2nc([N+](=O)[O-])cn2C1)c1ccc(OC(F)(F)F)cc1` [PA-1150] the inhibition at 25 µg/mL (Cryptosporidium parvum; 25 μg/mL) was 4.8%, the inhibition at 50 µg/mL (Cryptosporidium parvum; 50 μg/mL) was 1.7% and the inhibition at 100 µg/mL (Cryptosporidium parvum; 100 μg/mL) was 30%. For the same compound, the inhibition at 200 µg/mL (Cryptosporidium parvum; 200 μg/mL) was 96.2% and the MIC [2] was 0.5 µg/mL (≈ 1.34 µM).
`COC(C(=O)N[C@@H]1COc2nc([N+](=O)[O-])cn2C1)(c1ccccc1)C(F)(F)F` (stereo partly drawn) [PA-1170] was tested, and the “Percent Inhibition of C. parvum” value (Cryptosporidium parvum; 25 μg/mL) was -3%, the “Percent Inhibition of C. parvum” value (Cryptosporidium parvum; 50 μg/mL) was -6% and the “Percent Inhibition of C. parvum” value (Cryptosporidium parvum; 100 μg/mL) was 16%. The “Percent Inhibition of C. parvum” value (Cryptosporidium parvum; 200 μg/mL) was -3.6% and the “MIC, column A, 3(S) compounds” value [2] was 0.13.
With `O=C(Nc1ccc(Cl)cc1)N[C@@H]1COc2nc([N+](=O)[O-])cn2C1` [PA-1282, 4-Chlorophenyl Urea of 3S 3-Amino-6-nitro-3,4-dihydro-[2-1b]imidazopyran] the MIC [2] was at most 0.002 µg/mL.
For `O=C(Nc1ccc(OC(F)(F)F)cc1)N[C@@H]1COc2nc([N+](=O)[O-])cn2C1` [PA-1298], the “Toxic (given in place of percent inhibition)” value (Cryptosporidium parvum; 200 μg/mL, HCT-8 monolayers) was “Toxic”, the inhibition at 25 µg/mL (Cryptosporidium parvum; 25 μg/mL) was 11.9% and the inhibition at 50 µg/mL (Cryptosporidium parvum; 50 μg/mL) was 30%. For the same compound, the inhibition at 100 µg/mL (Cryptosporidium parvum; 100 μg/mL) was 85% and the MIC [2] was 0.015 µg/mL (≈ 0.0387 µM).
`[H]/N=C(/N)N[C@H]1[C@H](O)[C@@H](O)[C@H](O[C@@H]2O[C@@H](C)[C@](O)(C=O)[C@H]2O[C@@H]2O[C@@H](CO)[C@H](O)[C@@H](O)[C@@H]2NC)[C@@H](N/C(N)=N\[H])[C@@H]1O` [Streptomycin] showed an activity at 0.15 µg/mL [3] of 63.5%, an activity at 0.31 µg/mL [3] of 39.8% and an activity at 0.62 µg/mL [3] of 19.6%. The activity at 1.25 µg/mL [3] was 11.7%, the activity at 2.5 µg/mL [3] was 8% and the activity at 5 µg/mL [3] was 4.4%.
